Key:
Hsp90 = assay: Western blot analyses of Hsp90 client protein degradation in MCF-7 cells; format: cell-based
[1] = test system: MCF7 breast cancer cell-line; assay: Anti-proliferative activity against MCF7 breast cancer cell-line; format: cell-based; conditions: Homo sapiens, MCF7, read-out: IC50 against MCF-7

IC50 [1] [µM]	SMILES	Hsp90 client protein degradation (Hsp90)	Hsp90 induction (heat shock response) (Hsp90)
	COc1ccc(Oc2ccc3cc(NC(=O)c4ccc(O)c(CC=C(C)C)c4)c(=O)oc3c2C)cc1 [Compound 14]	client protein degradation was observed	no Hsp90 induction was seen
	COc1ccc(Cc2ccc3cc(NC(=O)c4ccc(OC(C)=O)c(CC=C(C)C)c4)c(=O)oc3c2C)cc1 [Compound 43]	client protein degradation was observed	no Hsp90 induction was seen
~13	COc1ccc(Cc2ccc3cc(NC(=O)c4ccc(O)c(CC=C(C)C)c4)c(=O)oc3c2C)cc1OC [Compound 48]		
